Consider one compound from PMC8009417, “Selective killing of homologous recombination-deficient cancer cell lines by inhibitors of the RPA:RAD52 protein-protein interaction” (PLoS ONE, 2021).

One assay relates to RAD52 protein level. Description: Simple Western of RAD52 protein level after treatment. Particulars: 72 h at doses near EC50. In kind it is cell-based, human. As for the experimental part: (§1) Fig 6 The effect of mitoxantrone treatment on RAD52 levels and DNA damage. […] Data and ANOVA statistical analyses are described in the material and methods section. Significance statistics are shown with single, double, or triple asterisks representing P<0.05, P<0.005, or P<0.0005, respectively.
(§2) For western analysis, each cell line was grown and treated as described above. Protein levels were measured in lysates by size separation with a ProteinSimple PeggySue instrument following the manufacturer’s recommendations. Lysates were prepared using the NanoPro Cell Lysis Kit with Bicine/CHAPS (ProteinSimple CBS403) at 0.75 mg/mL concentration when mixed with master mix (containing SDS, DTT and fluorescent molecular weight markers; ProteinSimple PS-FL01-8) and heated for 5 min at 95°C. Electrophoretic nanocapillary size separation of proteins was performed using default settings. After separation, UV light cross-linked proteins to the capillary wall. Capillaries were then washed and incubated with primary antibodies, washed, and incubated with anti-rabbit secondary antibody conjugated with HRP (ProteinSimple DM-001). Finally, luminol and peroxide were applied to generate chemoluminescence which was imaged by a CCD camera. Primary antibody concentrations were optimized and were diluted as follows: Abcam anti-RAD52 antibody (ab18263, diluted 1:25), R&D Systems Human Phospho-histone H2AX (S139) antibody (AF2288, diluted 1:100), and Cell Signalling Technology Pan-Actin antibody (#4968, diluted 1:2500).
(§3) The Simple western data were processed and analyzed with ProteinSimple Compass software. Peak areas were calculated using dropped lines. Each lysate was analyzed for RAD52 and γH2AX levels three times and for Actin two times (see S2 Fig). Replicate peak areas for RAD52 and γH2AX were averaged, divided by the average Actin peak area of that sample, multiplied by 100 and graphed using SigmaPlot 7.0.

For assay [1], the system named is BRCA2-deficient PE01 ovarian cancer cells (BRCA2-). Description: Cell viability assay (PrestoBlue, 72 h), PE01. The class given is cell-based. To be noted: Homo sapiens, estimated from the graphs. As for the experimental part:
BRCA2-deficient PE01 cell line (a gift from Dr. Toshiyasu Taniguchi, Tokai University, Japan) were derived from an ovarian cancer patient. BRCA2-proficient “revertant” cell line, C4-2 is one of eight clones derived from PE01 that has acquired resistance to both cisplatin and PARPi due to a secondary mutation that restored the BRCA2 function. PE01 and PE01 C4-2 were grown and maintained in DMEM high glucose (Hyclone) supplemented with 10% Fetal Bovine Serum (FBS, Invitrogen).
(§4) Cells were seeded 5 x 10^3 cells per well in 96-well plates in a 90 μL volume per well one day before treatment. Cells in 96-well plates were incubated with increasing concentrations of the compound or vehicle control (1% DMSO) for 72 hours. Each treatment plate contained nine concentrations of a compound in sextuplicate. Growth inhibition was determined using PrestoBlue reagent (Life Technologies, #A13261). Fluorescent measurements were taken using a Spectramax M5 plate reader (MDS). To assess cells’ replication in the absence of compounds as a control, six wells on each plate were treated with vehicle to be read in triplicate at the initial treatment day (T0) and at 72-hour read (T100).

Assay [2] has as its system UWB1.289 cells corrected with wild-type BRCA1 gene (BRCA1+). Briefly: Cell viability assay (PrestoBlue, 72 h), UWB1.289+BRCA1. To be noted: Homo sapiens, UWB1289, estimated from the graphs. In kind it is cell-based.
From the text: (§5) BRCA1-deficient UWB1.289 cells corrected with wild-type BRCA1 gene (BRCA1+; closed triangle) and parental BRCA1-deficient UWB1.289 (BRCA1-; closed circle). Two PARPi-resistant cell lines derived from UWB1.289, UWB1.289.SYr12 (closed diamond) and UWB1.SYr13 (X), were also examined.
(§6) UWB1.289 (a gift from Dr. Lee Zou, Harvard Medical School, Boston, MA) were derived from a serous ovarian carcinoma with a germline BRCA1 mutation and a deletion of the wild-type allele. […] Two PARP-resistant cell lines, SYr12 and SYr13, were derived from the UWB1.289. The Mammary Epithelial growth media, along with SupplementMix solution for UWB1 cell lines, were obtained from PromoCell GmbH and mixed as described.
as §4

Assay [3] relates to PARPi-resistant UWB1.289.SYr12 cells. Briefly: Cell viability assay (PrestoBlue, 72 h), UWB1.289.SYr12. In kind it is cell-based. To be noted: Homo sapiens, estimated from the graphs.
From the text: as §5, §6, §4

The subject of assay [4] is GFP-RAD52 foci in PE01 C4-2 cells. Briefly: Radiation-induced GFP-RAD52 foci formation. In kind it is cell-based, human. Particulars: 3 nM pre-treatment, 15 Gy X-ray. The procedure:
Cells without mitoxantrone and radiation (labeled C) were controls. The average percent of cells with foci (more than 5 foci per cell) are graphed from three independent experiments. More than 30 cells per experiment were analyzed. Error bars represent standard deviation.
Each cell line was seeded on a coverslip at 10^5 cells per well in a 24-well plate. After the 24 hour incubation, the cells were pre-incubated with mitoxantrone for 2 hours, then irradiated with X-ray at 15 Gy with the RS-2000 Irradiator. After 2~ 8 hours of the irradiation, the cells were fixed in 10% formaldehyde solution at room temperature for 30 min, followed by 10 min incubation in PBS containing 0.5% Triton X-100. After staining with 1 μg/ml H1399 Hoechst dye solution, each coverslip was mounted on a slide. GFP proteins were detected with a Zeiss 710 Confocal Laser Scanning Microscope, and images were processed using Zeiss ZEN software. A cell contained more than 5 foci was considered as positive.

In assay [5] the test system is BRCA1-deficient UWB1.289 ovarian cancer cells (BRCA1-). Description: Cell viability assay (PrestoBlue, 72 h), UWB1.289. Particulars: Homo sapiens, UWB1289, estimated from the graphs. The class given is cell-based.
From the text: as §5, §6, §4

The test system of assay [6] is PARPi-resistant UWB1.SYr13 cells. Briefly: Cell viability assay (PrestoBlue, 72 h), UWB1.SYr13. In kind it is cell-based. To be noted: Homo sapiens, estimated from the graphs.
From the text: as §5, §6, §4

The next assay relates to γH2AX (DNA damage). Description: Simple Western of γH2AX (DNA damage) after treatment. To be noted: 72 h at doses near EC50. The class given is cell-based, human. The procedure: as §1, §2, §3
The subject of assay [7] is homologous recombination (HR) in U2OS-DR cells. Description: Cell-based DSB repair assay, HR (DR-GFP reporter, FACS). To be noted: 4 nM, 2 h pre-treatment, three days. As for the experimental part:
(A) The effect of mitoxantrone (MX) on SSA and HR were studied with cell-based DSB repair assays. U2OS-SA and U2OS-DR cells were pre-treated with mitoxantrone for two hours before transfection of the SceI-expression plasmid. Then cells were grown in the presence of mitoxantrone for three days. DSB repair activities were determined by (B) FACS analysis. […] U2OS-SA cells were pre-treated with indicated concentrations of mitoxantrone for two hours, before I-SceI-expression vector transfection. After 72 hours incubation, the cells were harvested, and lysates were prepared. Lysate from each treatment was analyzed by 12% SDS-PAGE and the expression levels of I-SceI was determined by the western blot using anti-HA antibody. The p70 of RPA was used as a loading control. Ratios of I-SceI to p70 was obtained with ImageJ and are shown at the bottom of the image. C: control experiment without the addition of mitoxantrone. (D, E) Analysis of DSB repair activiies by western blots. […] At least three independent experiments were performed. Error bars represent standard deviations.

`O=C1c2c(O)ccc(O)c2C(=O)c2c(NCCNCCO)ccc(NCCNCCO)c21` [Mitoxantrone, mitoxantrone]: the “Change of RAD52 level with treatment” value in the assay with RAD52 protein level (HCC1937 cells) is given as “the level of RAD52 increased”; in the assay on RAD52 protein level (PE01 cells) it was “dramatic reduction in RAD52 protein”; in the assay with RAD52 protein level (UWB1 cells) it was “the level of RAD52 decreased”. Besides, the concentration for a half-maximal effect (EC50) is 100 nM in assay [1]; 3000 nM in [2]; 2400 nM in [3]; 200 nM in [5]; 2500 nM in assay [6]. Moreover, in assay [4], the “Effect on radiation-induced RAD52 foci formation” value is reported as “inhibited the radiation-induced RAD52 foci formation”. The “DNA damage (γH2AX) from treatment” value with γH2AX (DNA damage) (HCC1937 cell lines) is given as “low to negligible levels of DNA damage”; in the assay on γH2AX (DNA damage) (PE01 cells) it was “substantial increase in DNA damage”; in the assay on γH2AX (DNA damage) (UWB1 cell lines), “low to negligible levels of DNA damage”. The HR suppression in [7] is on record as 40% ± 7%.

In general, EC50 refers to the midpoint of the concentration-response curve.
